Some test systems named below: Micrococcus luteus MT166; Escherichia coli W160-37; Bacillus subtilis; Pseudomonas aeruginosa; Escherichia coli O157; Cutibacterium acnes PJI2; Escherichia coli HB101; Cutibacterium acnes C2; Acinetobacter baumannii; Enterococcus gallinarum; Enterococcus faecium; Staphylococcus aureus; Micrococcus luteus; Listeria innocua; Escherichia coli.
Assay in all cases: ≥ marks a high value that may be exact or a test limit, other limits are often not marked, values filed in µg/mL are converted to µM
Test [1] deals with Saccharomyces cerevisiae ATCC 8530.
In test [2] the test system is Staphylococcus aureus ATCC 8530.
In test [3] the test system is Pseudomonas putida NCIM 2102.
For test [4], the system named is Burkholderia cenocepacia 4813.
Test [5] deals with Enterococcus faecalis ATCC 19433.
Test [6] relates to Staphylococcus aureus ATCC 25923.
Test [7] has as its system Pseudomonas aeruginosa PA14.
The subject of test [8] is Klebsiella pneumoniae KPLN649.
Test [9] concerns Acinetobacter baumannii ATCC 17987.
For test [10], the system named is Klebsiella pneumoniae 1549216.
In test [11] the test system is Salmonella enterica subsp. enterica serovar Typhimurium ATCC 14028s.
Test [12] deals with Pseudomonas aeruginosa PAO1.
The subject of test [13] is Enterobacter cloacae 218R.
For test [14], the system named is Salmonella typhimurium C587.
The test system of test [15] is Klebsiella pneumoniae ATCC 13883.
The subject of test [16] is Mycobacterium tuberculosis H37Rv.
The test system of test [17] is Salmonella typhimurium KCTC 2370.
The test system of test [18] is Saccharomyces cerevisiae ATCC 44774.
Test [19] deals with Enterococcus faecalis ATCC 29212.
In test [20] the test system is Enterococcus casseliflavus.
For test [21], the system named is Bacillus subtilis KCTC 3038.
Test [22] has as its system Escherichia coli ATCC 25922.
Test [23] deals with Pseudomonas aeruginosa CIP A22.
For test [24], the system named is Escherichia coli ATCC 54127.
The test system of test [25] is Pseudomonas aeruginosa ATCC 27853.
The test system of test [26] is Staphylococcus epidermidis PIA 8400.
Test [27] relates to Staphylococcus aureus ATCC 29213.
For test [28], the system named is Salmonella enterica subsp. enterica serovar Enteritidis.
In test [29] the test system is Pseudomonas aeruginosa ATCC 9027.
The test system of test [30] is Candida albicans ATCC 90028.
Test [31] deals with Staphylococcus aureus USA 300.
Test [32] relates to Staphylococcus aureus USA 100.

The text below walks through data of DBAASP.

Values after ≈ are worked out from the molar mass of the structure shown. Values joined by “and” are separate entries in the source; they are usually repeats but may differ in a detail not shown here. Equal entries are not always repeated. Where only a bound is given, the exact number is not on record here.

What is called MIC is the least concentration at which growth counts as inhibited. Low readings indicate inhibition by little substance, high ones a need for much substance. On to `CC[C@H](C)[C@@H]1NC(=O)[C@@H]2CCCN2C(=O)[C@H](CC(C)C)NC(=O)[C@@H]2CCCN2C(=O)[C@H]([C@@H](C)CC)NC(=O)[C@H](C)NC(=O)[C@H](Cc2ccc(O)cc2)NC(=O)[C@@H](NC(=O)[C@@H](NC(=O)[C@@H](N)CCCN=C(N)N)C(C)C)CSSC[C@@H](C(=O)N[C@@H](Cc2ccc(O)cc2)C(N)=O)NC1=O` [RVCYAIPLPICY], for which the minimum inhibitory concentration (MIC) with Micrococcus luteus MT166 was 21.3 µM (≈ 29.9 µg/mL); against Escherichia coli W160-37 it was 28.4 µM (≈ 39.9 µg/mL); in test [1] it was at least 56.7 µM; against Bacillus subtilis it was 21.3 µM (≈ 29.9 µg/mL); in test [2] it was 21.3 µM (≈ 29.9 µg/mL); in test [3], 28.4 µM (≈ 39.9 µg/mL).

Turning to `CC[C@H](C)[C@H](NC(=O)[C@H](CCCN=C(N)N)NC(=O)[C@@H](NC(=O)[C@H](C)NC(=O)[C@@H](NC(=O)[C@@H](NC(=O)[C@H](CC(C)C)NC(=O)[C@H](CCCN=C(N)N)NC(=O)[C@@H](N)C(C)C)[C@@H](C)CC)C(C)C)C(C)C)C(=O)N[C@@H](Cc1c[nH]c2ccccc12)C(=O)N[C@@H](CCCN=C(N)N)C(=O)N[C@@H](CCCN=C(N)N)C(N)=O` [VRLIVAVRIWRR], the MIC against Pseudomonas aeruginosa was 12.4 µM (≈ 19 µg/mL); in the test on Escherichia coli O157 it was 20.8 µM (≈ 32 µg/mL); in test [4], at least 167 µM; against Cutibacterium acnes PJI2, at least 41.6 µM; in test [5], at least 167 µM; in the test on Escherichia coli HB101, 20.8 µM (≈ 32 µg/mL). In addition, the MIC in the test with Cutibacterium acnes C2 is at least 41.6 µM; in test [6], 167 µM (≈ 256 µg/mL); in [7] it was ≥ 41.6 µM and 20.8 µM; in test [8] it was 20.8 µM (≈ 32 µg/mL); in test [9], at least 83.3 µM; in test [10] it was at least 41.6 µM. Moreover, the MIC in test [11] was at least 41.6 µM; in test [12] it was 41.6 µM (≈ 64 µg/mL); in test [13], at least 41.6 µM; in test [14], at least 41.6 µM; in test [15], 5.21 µM (≈ 7.99 µg/mL); against Acinetobacter baumannii, at least 83.3 µM. Besides, the minimum inhibitory concentration (MIC) in test [16] worked out at 10.4 µM (≈ 16 µg/mL).

Regarding `CC[C@H](C)[C@H](NC(=O)[C@H](CCCCN)NC(=O)[C@H](CCC(N)=O)NC(=O)[C@H](CCCCN)NC(=O)[C@@H](NC(=O)[C@@H](NC(=O)[C@H](CCC(N)=O)NC(=O)[C@@H](NC(=O)[C@@H](NC(=O)[C@@H]1CCCN1C(=O)[C@H](CCCN=C(N)N)NC(=O)[C@@H](NC(=O)[C@@H](NC(=O)[C@@H](N)CCCN=C(N)N)[C@@H](C)CC)[C@@H](C)CC)[C@@H](C)CC)[C@@H](C)CC)[C@@H](C)CC)[C@@H](C)CC)C(=O)N[C@@H](CCCN=C(N)N)C(=O)O` [RIIRPIIQIIKQKIR], the minimum inhibitory concentration (MIC) was 1.06 µM (≈ 2 µg/mL) with Enterococcus gallinarum; 2.12 µM (≈ 4 µg/mL) in [17]; 2.12 µM (≈ 4 µg/mL) in test [18]; 1.06 µM (≈ 2 µg/mL) in the test on Enterococcus faecium; 1.06 µM (≈ 2 µg/mL) in test [19]; 1.06 µM (≈ 2 µg/mL) in test [20]. Also, the MIC was 1.5 µM (≈ 2.83 µg/mL) in the test on Staphylococcus aureus and 1.06 µM (≈ 2 µg/mL) in [21].

In the case of `CC[C@H](C)[C@H](NC(=O)CNC(=O)[C@H](CCCCN)NC(=O)[C@H](CC(C)C)NC(=O)[C@H](CCSC)NC(=O)[C@H](CC(N)=O)NC(=O)[C@H](CCCCN)NC(=O)[C@H](Cc1c[nH]c2ccccc12)NC(=O)[C@H](CC(C)C)NC(=O)[C@H](C)N)C(=O)NCC(=O)N[C@@H](CCCCN)C(=O)N[C@@H](CC(C)C)C(=O)N[C@@H](C)C(=O)NCC(=O)N[C@@H](CCC(N)=O)C(=O)N[C@@H](C)C(=O)N[C@@H](C)C(=O)N[C@@H](CC(C)C)C(=O)NCC(=O)N[C@@H](C)C(=O)N[C@H](C(=O)N[C@@H](CCCCN)C(=O)N[C@H](C(=O)N[C@@H](CC(C)C)C(=O)N[C@H](C(=O)NCC(=O)N[C@@H](C)C(=O)O)C(C)C)[C@@H](C)O)C(C)C` [ALWKNMLKGIGKLAGQAALGAVKTLVGA], the minimal inhibitory concentration (MIC) in test [6] came to 1.3 µM (≈ 3.61 µg/mL); in [22], 2.6 µM (≈ 7.23 µg/mL); in test [23] it was 2.3 µM (≈ 6.39 µg/mL); in [24], 2.3 µM (≈ 6.39 µg/mL); in test [25] it was 5 µM (≈ 13.9 µg/mL).

Consider `CC(C)C[C@H](NC(=O)[C@H](CCCN=C(N)N)NC(=O)[C@@H](N)Cc1ccc(O)cc1)C(=O)N[C@@H](CCCN=C(N)N)C(=O)N[C@H](C(=O)N[C@@H](CCCCN)C(=O)N[C@@H](Cc1c[nH]c2ccccc12)C(=O)N[C@@H](CCCCN)C(=O)N[C@@H](Cc1c[nH]c2ccccc12)C(N)=O)C(C)C` [YRLRVKWKW], for which the MIC in test [26] is 4.5 µM and 9.74 µM; in test [27], 9.74 µM (≈ 13 µg/mL); in test [22] it was 9.74 µM (≈ 13 µg/mL); in [25] it was 18.7 µM and 9.74 µM; in test [19], 37.5 µM and 74.9 µM.

Regarding `NC(N)=NCCC[C@H](N)C(=O)N[C@@H](Cc1ccc(O)cc1)C(=O)N[C@@H](Cc1cnc[nH]1)C(=O)O` [RYH], the minimum inhibitory concentration (MIC) in the test on Micrococcus luteus was 4 µM (≈ 1.9 µg/mL); in [28], 1 µM (≈ 0.475 µg/mL); in test [29], above 100 µM; in test [30], at least 100 µM; in the test on Listeria innocua it was 1 µM (≈ 0.475 µg/mL); against Escherichia coli, 4 µM (≈ 1.9 µg/mL). The MIC in test [31] and in [32] was at least 100 µM throughout.
